From patent publication US6583154B1, “Compounds and methods which modulate feeding behavior and related diseases” (Amgen Inc., priority 1998, dated 2003)
Structures can show the parent of a compound that is named as a salt.

What was measured:
Male BALB-C mice = test: IP administration of compounds in fasted male BALB-C mice, 2 hr food intake; type: in vivo; settings: Mus musculus; male BALB-C mice fasted 18-20 hr; 30 mg/kg (ip) in 2% tween; food given after 30 min, weighed 2 hr later; vs vehicle; read-out: inhibition of feeding (2 hr food intake)
Text: Protocol For IP Administration Of Compounds In Male BALB-C Mice.
Male BALB-C mice (20-25 g)were obtained from Charles Rivers (Wilmington, Mass.) and were given at least a one week acclimation period to Amgen's animal care facilities. Animals were housed 10/cage and were provided ad libitum food and water. For testing, mice were fasted for 18-20 hr (overnight) prior to the start of the experiment. On the day of the experiment, mice were removed from group housing and placed into individual cages (without food). Test compounds or vehicle was then administered via the intraperitoneal (i.p.) route of administration. Test compounds were suspended in a 2% tween solution; the 2% tween solution was used as the vehicle treatment (control group). Group sizes for each treatment were 6-8 animals. After 30 min, premeasured food was placed into the cages. Two hours later, the food was weighed again. The difference between 2 hr weight and the premeasured weight was taken as 2 hr food intake.

Long-Evans male rats = test: IP administration of compounds in fasted Long-Evans male rats, 2 hr food intake; type: in vivo; settings: Rattus norvegicus; male Long Evans rats fasted 18-20 hr; 30 mg/kg (ip) in 2% tween; food given after 30 min, weighed 2 hr later; vs vehicle; read-out: inhibition of feeding (2 hr food intake)
Protocol: Protocol for IP Administration of Compounds in Fasted Long-Evans Male Rats
Male Long Evans rats (85-100 g)were obtained from Harlan (Indianapolis, Ind.) and were given at least a one week acclimation period to Ambients animal care facilities. Animals were individually housed and were provided ad libitum food and water. For testing, rats were fasted for 18-20 hr (overnight) prior to the start of the experiment. On the test day, test compounds or vehicle was administered via the intraperitoneal (i.p.) route of administration. Test compounds were suspended in a 2% tween solution; the 2% tween solution was used as the vehicle treatment (control group). Group sizes for each treatment were 6-8 animals. After 30 min, premeasured food was placed into the cages. Two hours later, the food was weighed again. The difference between 2 hr weight and the premeasured weight was taken as 2 hr food intake.

SMILES: Cc1nc(N2CCCCC2)c2sc(-c3ccccc3)cc2n1 [Example 32, 2-Methyl-6-phenyl-4-piperidylthiopheno[3,2-d]pyrimidine Hydrochloride]
- inhibition in vivo at 30 mg/kg (Male BALB-C mice): ≥ 10%
- inhibition in vivo at 30 mg/kg (Long-Evans male rats): ≥ 10%

SMILES: Cc1nc(N2CCCCC2)c2sc(-c3ccc(Cl)cc3)cc2n1 [Example 33, 6-(4-Chlorophenyl)-2-methyl-4-piperidylthiopheno[3,2-d]pyrimidine Hydrochloride]
- inhibition in vivo at 30 mg/kg (Male BALB-C mice): ≥ 10%
- inhibition in vivo at 30 mg/kg (Long-Evans male rats): ≥ 10%

SMILES: Cc1nc(N2CC=CC2)c2[nH]c(-c3ccccc3)cc2n1 [Example 61, 2-Methyl-6-phenyl-4-(pyrrolinyl)pyrrolo[3,2-d]pyrimidine Hydrochloride Monohydrate]
- inhibition in vivo at 30 mg/kg (Male BALB-C mice): ≥ 10%
- inhibition in vivo at 30 mg/kg (Long-Evans male rats): ≥ 10%

SMILES: Cc1nc(N2CCCCC2C)c2[nH]c(-c3ccccc3)cc2n1 (centres unmarked) [Example 63, 2-Methyl-6-phenyl-4-(2-methylpiperidinyl)pyrrolo(3,2-d)pyrimidine Hydrochloride Monohydrate]
- inhibition in vivo at 30 mg/kg (Male BALB-C mice): ≥ 10%
- inhibition in vivo at 30 mg/kg (Long-Evans male rats): ≥ 10%

SMILES: Cc1nc(N2CC=CCC2)c2[nH]c(-c3ccccc3)cc2n1 [Example 65, 2-Methyl-6-phenyl-4-(1,2,3,6-tetrahydropyridinyl)pyrrolo[3,2-d]pyrimidine Hydrochloride]
- inhibition in vivo at 30 mg/kg (Male BALB-C mice): ≥ 10%
- inhibition in vivo at 30 mg/kg (Long-Evans male rats): ≥ 10%

SMILES: Nc1nc(N2CCCCC2)c2[nH]c(-c3ccccc3)cc2n1 [Example 66e, 6-Phenyl-4-piperidylpyrrolo[3,2-d]pyrimidine-2-yl Amine Hydrochloride Hydrate]
- inhibition in vivo at 30 mg/kg (Male BALB-C mice): ≥ 10%
- inhibition in vivo at 30 mg/kg (Long-Evans male rats): ≥ 10%

SMILES: CCc1nc(N2CCCCC2)c2[nH]c(-c3ccccc3)cc2n1 [Example 68c, 2-Ethyl-6-phenyl-4-piperidylpyrrolo[3,2-d]pyrimidine Hydrochloride Monohydrate]
- inhibition in vivo at 30 mg/kg (Male BALB-C mice): ≥ 10%
- inhibition in vivo at 30 mg/kg (Long-Evans male rats): ≥ 10%

SMILES: COc1ccc(-c2cc3nc(C)nc(N4CCCCC4)c3[nH]2)cc1 [Example 71e, 4-Methoxy-1-(2-methyl-4-piperidylpyrrolo[4,5-d]pyrimidin-6-yl)benzene Hydrochloride Monohydrate]
- inhibition in vivo at 30 mg/kg (Male BALB-C mice): ≥ 10%
- inhibition in vivo at 30 mg/kg (Long-Evans male rats): ≥ 10%

SMILES: Cc1nc(N2CCCCC2)c2[nH]c(-c3ccc(O)cc3)cc2n1 [Example 72, 2-methyl-4-piperidyl-6-(4-hydroxyphenyl)pyrrolo[3,2-d]pyrimidine]
- inhibition in vivo at 30 mg/kg (Male BALB-C mice): ≥ 10%
- inhibition in vivo at 30 mg/kg (Long-Evans male rats): ≥ 10%

SMILES: Cc1nc(N2CCCCC2)c2[nH]c(C3CCCCC3)cc2n1 [Example 80d, 6-Cyclohexyl-2-methyl-4-piperidylpyrrolo[3,2-d]pyrimidine Hydrochloride Hydrate]
- inhibition in vivo at 30 mg/kg (Male BALB-C mice): ≥ 10%
- inhibition in vivo at 30 mg/kg (Long-Evans male rats): ≥ 10%

SMILES: Cc1nc(N2CCCCC2)c2[nH]c(-c3cc4ccccc4o3)cc2n1 [Example 85, 2-(2-Methyl-4-piperidylpyrrolo[4,5-d]pyrimidin-6-yl)benzo[b]furan Hydrochloride Monohydrate]
- inhibition in vivo at 30 mg/kg (Male BALB-C mice): ≥ 10%
- inhibition in vivo at 30 mg/kg (Long-Evans male rats): ≥ 10%

SMILES: Cc1nc(N2CCCCC2)c2[nH]c(-c3ccc(Cl)cc3)cc2n1.Cl [Example 92d, 6-(4-Chlorophenyl)-2-methyl-4-piperidylpyrrolo[3,2-d]pyrimidine Hydrochloride]
- inhibition in vivo at 30 mg/kg (Male BALB-C mice): ≥ 10%
- melting point: 253.8 to 255.2 °C (dec.)

SMILES: Cc1nc(N2CCCCC2)c2oc(-c3ccc(Cl)cc3)cc2n1 [Example 95c, 6-(4-Chlorophenyl)-2-methyl-4-piperidinylfurano-[3,2-d]-pyrimidine Hydrochloride Hydrate]
- inhibition in vivo at 30 mg/kg (Male BALB-C mice): ≥ 10%
- inhibition in vivo at 30 mg/kg (Long-Evans male rats): ≥ 10%

SMILES: Cc1nc(N2CCCCC2)c2[nH]c(C(C)(C)C)cc2n1 [Example 97, 6-(tert-Butyl)-2-methyl-4-piperidylpyrrolo[3,2-d]pyrimidine Hydrochloride Hydrate]
- inhibition in vivo at 30 mg/kg (Male BALB-C mice): ≥ 10%
- inhibition in vivo at 30 mg/kg (Long-Evans male rats): ≥ 10%

SMILES: CC1=C(c2cc3nc(C)nc(N4CCCCC4)c3[nH]2)CCC1.Cl [Example 98, 2-Methyl-6-(2-methylcyclopent-1-enyl)-4-piperidylpyrrolo[3,2-d]pyrimidine Hydrochloride]
- inhibition in vivo at 30 mg/kg (Male BALB-C mice): ≥ 10%
- melting point: 224.5 to 226 °C

SMILES: Cc1nc(N2CCCCC2)c2[nH]c(-c3ccn(S(=O)(=O)c4ccccc4)c3)cc2n1 [Example 101, 3-(2-Methyl-4-piperidylpyrrolo[4,5-d]pyrimidin-6-yl)-1-(phenylsulfonyl)pyrrole Hydrochloride Hydrate]
- inhibition in vivo at 30 mg/kg (Male BALB-C mice): ≥ 10%
- inhibition in vivo at 30 mg/kg (Long-Evans male rats): ≥ 10%

SMILES: Cc1nc(N2CCCCC2)c2[nH]c(-c3cccc(F)c3)cc2n1 [Example 103, 6-(3-Fluorophenyl)-2-methyl-4-piperidylpyrrolo[3,2-d]pyrimidine Hydrochloride Monohydrate]
- inhibition in vivo at 30 mg/kg (Male BALB-C mice): ≥ 10%

SMILES: Cc1nc(N2CCCCC2)c2[nH]c(-c3cccc(C(F)(F)F)c3)cc2n1 [Example 107, 2-Methyl-4-piperidyl-6-[3-(trifluoromethyl)phenyl]pyrrolo[3,2-d]pyrimidine Hydrochloride Monohydrate]
- inhibition in vivo at 30 mg/kg (Male BALB-C mice): ≥ 10%

SMILES: Cc1nc(N2CCCCC2)c2[nH]c(-c3cc(C)oc3C)cc2n1 [Example 108, 2,5-Dimethyl-3-(2-methyl-4-piperidylpyrrolo[4,5-d]pyrimidin-6-yl)furan Hydrochloride Monohydrate]
- inhibition in vivo at 30 mg/kg (Male BALB-C mice): ≥ 10%
- inhibition in vivo at 30 mg/kg (Long-Evans male rats): ≥ 10%

SMILES: Cc1nc(N2CCCCC2)c2[nH]c(-c3ccc(C(F)(F)F)cc3)cc2n1 [Example 111, 2-Methyl-4-piperidyl-6-[4-(trifluoromethyl)phenyl]pyrrolo[3,2-d]pyrimidine Hydrochloride Hydrate]
- inhibition in vivo at 30 mg/kg (Male BALB-C mice): ≥ 10%
- inhibition in vivo at 30 mg/kg (Long-Evans male rats): ≥ 10%

SMILES: Cc1nc(N2CCCCC2)c2[nH]c(-c3ccc4c(c3)OCO4)cc2n1 [Example 114, 5-[2-Methyl-4-piperidylpyrrolo[4,5-d]pyrimidin-6-yl]-2H-benzo[d]1,3-dioxolane Hydrochloride Monohydrate]
- inhibition in vivo at 30 mg/kg (Male BALB-C mice): ≥ 10%

SMILES: Cc1nc(N2CCCCC2)c2[nH]c(-c3cc(F)c(F)c(F)c3)cc2n1 [Example 116, 2-Methyl-4-piperidyl-6-(3,4,5-trifluorophenyl)pyrrolo[3,2-d]pyrimidine Hydrochloride Hydrate]
- inhibition in vivo at 30 mg/kg (Male BALB-C mice): ≥ 10%
- inhibition in vivo at 30 mg/kg (Long-Evans male rats): ≥ 10%

SMILES: Cc1nc(N2CCCCC2)c2[nH]c(-c3ccc(Cl)c(Cl)c3)cc2n1 [Example 118, 6-(3,4-Dichlorophenyl)-2-methyl-4-piperidylpyrrolo[3,2-d]pyrimidine Hydrochloride Monohydrate]
- inhibition in vivo at 30 mg/kg (Male BALB-C mice): ≥ 10%
- inhibition in vivo at 30 mg/kg (Long-Evans male rats): ≥ 10%

SMILES: COc1ccc(-c2cc3nc(C)nc(N4CCCCC4)c3[nH]2)cc1F [Example 119, 2-Fluoro-1-methoxy-4-[2-methyl-4-piperidylpyrrolo[4,5-d]pyrimidin-6-yl]benzene Hydrochloride Hydrate]
- inhibition in vivo at 30 mg/kg (Male BALB-C mice): ≥ 10%
- inhibition in vivo at 30 mg/kg (Long-Evans male rats): ≥ 10%

SMILES: Cc1nc(N2CCCCC2)c2[nH]c(-c3ccc(F)c(F)c3)cc2n1 [Example 121, 6-(3,4-Difluorophenyl)-2-methyl-4-piperidylpyrrolo[3,2-d]pyrimidine Hydrochloride Hydrate]
- inhibition in vivo at 30 mg/kg (Male BALB-C mice): ≥ 10%
- inhibition in vivo at 30 mg/kg (Long-Evans male rats): ≥ 10%

SMILES: Cc1nc(N2CCCCC2)c2[nH]c(-c3ccc4c(c3)OCCO4)cc2n1 [Example 125, 6-(2-Methyl-4-piperidylpyrrolo[4,5-d]pyrimidin-6-yl)-2H,3H-benzo[e]1,4-dioxane Hydrochloride Monohydrate]
- inhibition in vivo at 30 mg/kg (Male BALB-C mice): ≥ 10%

SMILES: Cc1nc(N2CCCCC2)c2[nH]c(-c3ccc4c(c3)CCC4)cc2n1 [Example 130, 6-Indan-5-yl-2-methyl-4-piperidylpyrrolo[3,2-d]pyrimidine Hydrochloride Monohydrate]
- inhibition in vivo at 30 mg/kg (Male BALB-C mice): ≥ 10%

SMILES: Cc1nc(N2CCCCC2)c2[nH]c(-c3ccc4c(c3)CCO4)cc2n1 [Example 131, 5-[2-Methyl-4-piperidylpyrrolo[4,5-d]pyrimidin-6-yl]-2,3-dihydrobenzo[b]furan Hydrochloride Hydrate]
- inhibition in vivo at 30 mg/kg (Male BALB-C mice): ≥ 10%

SMILES: Cc1nc(N2CC=CC2)c2[nH]c(-c3ccc(F)cc3)cc2n1 [Example 199, 6-(4-Fluorophenyl)-2-methyl-4-(3-pyrrolinyl)pyrrolo[3,2-d]pyrimidine Hydrochloride Hydrate]
- inhibition in vivo at 30 mg/kg (Male BALB-C mice): ≥ 10%

SMILES: Cc1nc(N2CCc3ccccc32)c2[nH]c(-c3ccccc3)cc2n1 [Example 215, 4-Indolinyl-2-methyl-6-phenylpyrrolo[3,2-d]pyrimidine Hydrochloride Hydrate]
- inhibition in vivo at 30 mg/kg (Male BALB-C mice): ≥ 10%

SMILES: Cc1nc(-n2cccn2)c2[nH]c(-c3ccccc3)cc2n1 [Example 218, 2-Methyl-6-phenyl-4-pyrazolypyrrolo[3,2-d]pyrimidine Hydrochloride Hydrate]
- inhibition in vivo at 30 mg/kg (Male BALB-C mice): ≥ 10%
